Positions of bridges follow the written chain, without caps; N, C: chain ends. Residues, ends and D or L forms follow the SMILES beside them.
Columns and labels:
Grb2-SH2 = Grb2-SH2 (Homo sapiens, UniProt P62993); assay type: binding; details: 5 nM pYVNV ligand, 0.91 μM Grb2-SH2
[1] = Human serum stability assay; assay type: in vitro ADME; details: for peptide remaining after 24 hours in human serum (in words): 0.9 mg/mL, buffered human serum, 37 deg. C; for remaining at 7 h, 0.9 mg/mL: male, human, human type-AB serum diluted 9:1 in phosphate-buffered saline

Sequence of Grb2-SH2 (P62993 60-152 limits assumed): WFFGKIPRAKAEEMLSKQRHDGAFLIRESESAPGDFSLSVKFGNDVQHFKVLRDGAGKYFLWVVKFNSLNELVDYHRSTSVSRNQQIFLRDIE

SMILES: CSCC[C@@H]1NC(=O)CNC(=O)[C@H](C(C)C)NC(=O)[C@H](CC(N)=O)NC(=O)[C@@H]2CCCN2C(=O)[C@H](Cc2ccc(O)cc2)NC(=O)[C@H](CC(C)C)NC(=O)[C@H](CCC(=O)O)NC(=O)[C@@H](N)CSSC[C@@H](C(N)=O)NC(=O)[C@H](Cc2ccc(O)cc2)NC1=O [G1-Pro] (H-CELYPNVGMYC-NH2; disulfide 1-11; N-terminus and C-terminus assumed)
- inhibition of Grb2-SH2 in the competition assay (in words) (Grb2-SH2): little inhibitory activity
- peptide remaining after 24 hours in human serum (in words) [1]: no detectable amounts of peptide remaining
- remaining at 7 h, 0.9 mg/mL [1]: < 30%

SMILES: CSCC[C@@H]1NC(=O)CNC(=O)[C@H](C(C)C)NC(=O)[C@H](CC(N)=O)NC(=O)[C@H](CCC(=O)O)NC(=O)[C@H](Cc2ccc(O)cc2)NC(=O)[C@H](CC(C)C)NC(=O)[C@H](CCC(=O)O)NC(=O)[C@@H](N)CSSC[C@@H](C(N)=O)NC(=O)[C@H](Cc2ccc(O)cc2)NC1=O [G1, reference compound] (H-CELYENVGMYC-NH2; disulfide 1-11; N-terminus and C-terminus assumed)
- peptide remaining after 24 hours in human serum (in words) [1]: no detectable amounts of peptide remaining
- remaining at 7 h, 0.9 mg/mL [1]: < 30%

Source: article PMC3516885 (Chembiochem : a European journal of chemical biology, 2012)
